What was measured:
sows and piglets = format: in vivo
Procedure: Boron was added to the diet of sows at 1 mg/kg body weight as boric acid. […] Among a group of 95 piglets the birth to weaning mortality was 2 piglets. The usual mortality for this farm was about 5 to 7%. These piglets remained on boron 50 ppm plus ascorbate 125 ppm. One pig was euthanized and examined at a weight of about 85 pounds. […] All bones of the appendicular skeleton were sectioned on the band saw.

pigs = conditions: about 100 pigs, 50 ppm boron as boric acid
From the text: An Iowa farm treated a group of about 100 pigs with 50 ppm boron as boric acid.

[1] = tested on: pigs (boron crosslinks, osteochondrosis)
Procedure: The pigs were evaluated for lameness daily and euthanatized on day 13 and the joints and other organs were examined.

sows and their litters = experiment: Sow and litter trial in a commercial swine operation during a PRRSV outbreak (Example 3); format: in vivo, pig; conditions: sows given oral 1 mg boron per pound BW per day
Procedure: To test the effect of boron on sows and their litters, a trial was established in a large commercial swine operation during an outbreak of porcine viral reproductive and respiratory disease (PRRSV). Boron was administered orally to a group of 51 sows individually housed in crates at the rate of 1 mg boron per pound BW per day beginning 1 week prior to farrowing and continuing until the piglets were weaned at 14 days of age. […] Boron treatment was supplied as a single daily dosing and was discontinued at weaning. All sows were fed a standard commercial sow diet.

crossbred pigs = experiment: 28-day feeding trial: phosphorus digestibility and excretion, feed conversion (Example 4); format: in vivo, pig
Procedure: Pigs were randomly allocated to 24 pens of 6 pigs per pen in a thermoneutral controlled environment barn with steel grid flooring. Each pen was equipped with a single-hole feeder. Water was available free-choice from a nipple drinker. […] Feces were collected on the last 3 days of the study from each pen and a pooled aliquot was dried and submitted for chemical analysis. Yttrium oxide was added to the diet at 0.05% and served as a marker for phosphorus digestibility. Pig growth and feed consumption was measured at the end of the study with the pen as the experimental unit. Data was analyzed for effects of boron and calcium by univariate and multivariate analysis of variance and t-tests.

[2] = tested on: gestating and lactating sows and their piglets; experiment: Reproductive effects in sows: observation and preliminary pilot study (Example 3)
Procedure: Sows were fed a standard corn-soy diet. Half of the sows received an oral administration of a boron supplement to provide 1 mg boron per kg body weight.

[3] = tested on: growing swine (osteochondrosis); experiment: Boron supplementation and OC-associated lameness in growing swine (Example 1); format: in vivo, pig
Procedure: The basal diet consisted of commercial corn-soy diet containing 10 ppm boron.
Test diet group B was fed a basal diet plus 25 mg/kg boron as sodium borate decahydrate (borax). Test diet group A was fed a basal diet plus 25 mg/kg boron as sodium borate decahydrate (borax) and 250 mg/kg ascorbic acid.
Pigs were weighed at the beginning of the study, 4 weeks later and every 3 weeks until the end of the study. Animals were scored for soundness on a 5-point scale at each weighing. (Five-point scale: 1=no soundness defects; 2=minor soundness issues but still sound enough for retention as breeding animal; 3=not sound enough for retention for breeding but still marketable; 4=unsound, likely to be rejected at slaughter; 5=severely lame, requiring euthanasia for humane reasons.) Grading was done by the caretaker and the investigator at all weighing times. An experienced independent treatment-blind rater also evaluated the soundness of each animal and the ratings he provided were compared with the ratings of the caretaker and investigator by use of Cohen's Kappa test.
The animals were housed in a modern curtain sided barn with deep straw bedding, with ad libitum access to feed and water. Waterers and feeders were on a concrete pad but the remainder of the flooring was deep straw over a ground limestone and sand base. Floor space allowances exceeded the recommendations of the Guide for the Care and Use of Agricultural Animals in Agricultural Research and Teaching, First Revised Edition, 1999. Federation of Animal Science Societies. Savoy, Ill.
The basal diet (no boron supplemented) was analysed and found to contain boron at the rate of 10 ppm which is typical for a corn-soybean meal based diet.
At the end of the study the pigs were transported to a laboratory where they were euthanized and necropsied. Six pigs in each of group B and group A were put on the control diet for 7 days at the end of the study.
At necropsy, samples of liver, heart, kidney, fat, skeletal muscle, proximal tibia, blood, and the rostral snout were retained and frozen at −40° C. prior to chemical analysis. All joints of the axial skeleton were evaluated for the presence of gross lesions of osteochondrosis and graded on a 5 point scale. (5-point scale: 1=no gross abnormalities; 2=minor imperfections in articular conformation or articular reddening present but no cartilage erosions; 3=cartilage intact but surface irregularities of the cartilage are present; 4=fissuring or erosion of articular cartilage is obvious; 5=full thickness cartilage lesions or cartilage flaps, osteochondritis dissecans obviously present).
The proximal femur (femoral head) and articular surfaces and growth plates associated with the stifle, hock, shoulder, elbow and carpus were sectioned with a band saw and approx. 0.5 to 1.0 cm sections fixed in formalin. Bone sections were decalcified with formic acid/sodium citrate, embedded in paraffin and sectioned at 5 microns. Sections were deparaffinized according to standard procedures. Two sections were made from each joint and growth plate and stained with either hematoxylin/eosin (H&E) or with toluidine blue (pH 4)/fast green for evaluation of the articular cartilage, subchondral bone and growth plate.
Mean joint lesion scores, growth rate and soundness scores by treatment and by factors boron and ascorbate were compared using an analysis of variance and t-test as appropriate. Soundness scores were dichotomised into binary categorical variables for lameness (soundness score>2) and for absence of defects (soundness<2), and the binary variables analysed by chi-square and logistic regression.
Tissue specimens stained with H&E were examined microscopically for the presence of lesions of osteochondrosis. Toluidine Blue staining allowed assessment of retention or loss of proteoglycan from the extracellular matrix (ECM) of the cartilage. Each tissue section was scored by a treatment-blind board-certified pathologist. […]

[4] = tested on: sulfated glycosaminoglycan (sGAG) of cartilage; experiment: Glycosaminoglycan study: sGAG in articular cartilage plugs of fed pigs (Example 2); format: in vivo, pig; conditions: pigs fed 50 ppm boron; hock and elbow joints; unsupplemented 5045 ng/g; p<0.01
Procedure: Hock joints and elbow joints were obtained at necropsy from pigs in two feeding groups: one group having been fed a commercial ration supplemented with 50 mg B/kg feed and the other being fed only the standard commercial pig ration.
Cartilage plugs were harvested from the articular surfaces of 40 hock and elbow joints using a #5 (10.5 mm) cork borer. The samples were papain digested and analyzed for concentration of sulfated glycosaminoglycan (sGAG) using a spectrophotometric microplate analysis procedure adapted from Farndale, et al (1986), using a chondrotin sulfate standard. This method measures total sulfated glycosaminoglycan, most of which is chondrotin sulfate and keratan sulfate components of aggrecan. Aggrecan is the large aggregating proteoglycan of cartilage responsible for creating and maintaining the osmotic pressure of cartilage. Quanititation of sGAG concentration thus provides a measure of the weight-bearing and anti-friction properties of cartilage and is a measure of cartilage quality and durability.

[5] = boron 50 ppm in feed, 3-NPB none, 5 pigs
[6] = sows fed 50 ppm supplemental boron, late gestation and early lactation

Compound: OB(O)O [boric acid]
- Birth to weaning mortality (sows and piglets; among a group of 95 piglets, usual mortality of the farm about 5 to 7%): 2 piglets
- Outcome in three noticeably and seriously lame sows (sows and piglets; sows, boron 1 mg/kg body weight as boric acid in diet): became perfectly sound
- Growth rate (pigs): excellent growth rate
- Lameness/unsoundness rate (pigs; estimated previous rate about 25 to 30%): zero

Compound: [B] [boron]
- Clinical Lameness Score: count of pigs Normal [1, 5]: 5
- Clinical Lameness Score: count of pigs with Visible Lameness [1, 5]: 0
- Prevalence and severity of osteochondrosis lesions in shoulder, stifle, hock and elbow joints ([1]; supplemental boron, no 3-NPB): lowest prevalence of lesions and the lowest severity
- Effect on litter size at birth (sows and their litters): no effects
- Effect on piglet birth weight (sows and their litters): no effects
- Likelihood to conceive relative to control sows (sows and their litters; p=0.04): 1.2 times
- Return to estrus, average days quicker than control sows (sows and their litters; p=0.047): 1.6 days
- Phosphorus Digestibility (%) (crossbred pigs; 50 ppm added B in feed, 28 days, no added B 33.4, p 0.017): 36.3%
- Phosphorus excretion in Feces (g/Kg gain) (crossbred pigs; 50 ppm added B in feed, 28 days, no added B 88.1, p 0.028): 74.6 g/Kg gain
- Reduction of phosphorus excretion per unit of production (crossbred pigs; boron added to the diet vs no added boron): 15%
- Joint findings at necropsy (sows and piglets; one pig of about 85 pounds kept on boron 50 ppm plus ascorbate 125 ppm): No abnormalities were observed
- Piglet weight at 12 days of age ([2]; pilot study, sows given oral 1 mg boron per kg body weight, non-supplemented 8.0 pounds): 8.5 pounds
- Pre-weaning mortality ([2]; pilot study, sows given oral 1 mg boron per kg body weight, non-supplemented 23%, preliminary, first 600 pigs): 16%
- Piglet quality (uniformity, growth, general thrift) [2, 6]: improved
- Pre-weaning piglet mortality (observation) [2, 6]: reduced
- Joint health vs basal diet (FIG. 1) ([3]; 25 mg/kg boron as borax vs basal diet): healthier joints
- Growth plate lesions associated with widening, share of tissues ([3]; 25 ppm boron in feed (as borax), unsupplemented group 57%): 19%
- Articular cartilage lesions (necrosis, hemorrhage, infarction, or streaks), share of tissues ([3]; 25 ppm supplemental B in feed, unsupplemented pigs 21%): 4%
- TBlue staining intensity of cartilage (semi-quantitative sGAG content) ([3]; boron supplemented group vs unsupplemented): consistently higher
- Incidence of osteochondrosis-associated lameness ([3]; growing swine, boron supplementation): effective in reduction
- Occurrence of osteochondrosis ([3]; pigs, supplemental boron 25 ppm to 50 ppm (FIGS. 1, 3, 4)): significant reduction
- sGAG concentration in cartilage (dry matter basis) [4]: 11050 ng/g
